The results in this text go back to patent US20050148605A1, “Amide derivatives as ABL modulators” (Ambit Biosciences Corporation, priority 2003, published 2005).

Bounds are passed on as bounds.

For orientation: Kd means the equilibrium constant for the complex coming apart. Read a low Kd as a tighter complex.

The target of one assay is T1, ABL1(E274K) (Homo sapiens, UniProt P00519, E255K).
T1 construct: made in house; host or cells: T7 bacteriophage display
In words: Binding constant (Kd) measurement, phage-displayed kinase competition binding assay: ABL1(E274K). The conditions noted are these: competition with immobilized ATP site ligand. From the text:
(§1) Binding Constant (Kd) Measurements for Small-Molecule-Kinase Interactions
(§2) The term “ND” represents non-determined values.

A further assay concerns the target T2, ABL1(DKIN) (Homo sapiens, UniProt P00519).
T2 construct: column label 'AB L1(DKIN)'; fused on or other part: Fused to a T7 bacteriophage particle (phage display)
T2 sequence (P00519 242-493 limits assumed): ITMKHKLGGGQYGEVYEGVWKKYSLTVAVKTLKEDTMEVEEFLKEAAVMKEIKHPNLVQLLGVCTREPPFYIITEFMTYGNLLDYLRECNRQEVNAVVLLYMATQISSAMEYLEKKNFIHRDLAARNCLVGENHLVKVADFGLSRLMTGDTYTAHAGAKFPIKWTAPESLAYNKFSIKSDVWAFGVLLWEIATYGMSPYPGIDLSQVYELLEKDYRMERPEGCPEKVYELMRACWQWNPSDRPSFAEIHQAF
In words: Binding constant (Kd) measurement, phage-displayed kinase competition binding assay: ABL1(DKIN). The settings on record: competition with immobilized ATP site ligand.
Description: as §1, §2

T1 sequence (P00519 1-1149 isoform P00519-2 E274K): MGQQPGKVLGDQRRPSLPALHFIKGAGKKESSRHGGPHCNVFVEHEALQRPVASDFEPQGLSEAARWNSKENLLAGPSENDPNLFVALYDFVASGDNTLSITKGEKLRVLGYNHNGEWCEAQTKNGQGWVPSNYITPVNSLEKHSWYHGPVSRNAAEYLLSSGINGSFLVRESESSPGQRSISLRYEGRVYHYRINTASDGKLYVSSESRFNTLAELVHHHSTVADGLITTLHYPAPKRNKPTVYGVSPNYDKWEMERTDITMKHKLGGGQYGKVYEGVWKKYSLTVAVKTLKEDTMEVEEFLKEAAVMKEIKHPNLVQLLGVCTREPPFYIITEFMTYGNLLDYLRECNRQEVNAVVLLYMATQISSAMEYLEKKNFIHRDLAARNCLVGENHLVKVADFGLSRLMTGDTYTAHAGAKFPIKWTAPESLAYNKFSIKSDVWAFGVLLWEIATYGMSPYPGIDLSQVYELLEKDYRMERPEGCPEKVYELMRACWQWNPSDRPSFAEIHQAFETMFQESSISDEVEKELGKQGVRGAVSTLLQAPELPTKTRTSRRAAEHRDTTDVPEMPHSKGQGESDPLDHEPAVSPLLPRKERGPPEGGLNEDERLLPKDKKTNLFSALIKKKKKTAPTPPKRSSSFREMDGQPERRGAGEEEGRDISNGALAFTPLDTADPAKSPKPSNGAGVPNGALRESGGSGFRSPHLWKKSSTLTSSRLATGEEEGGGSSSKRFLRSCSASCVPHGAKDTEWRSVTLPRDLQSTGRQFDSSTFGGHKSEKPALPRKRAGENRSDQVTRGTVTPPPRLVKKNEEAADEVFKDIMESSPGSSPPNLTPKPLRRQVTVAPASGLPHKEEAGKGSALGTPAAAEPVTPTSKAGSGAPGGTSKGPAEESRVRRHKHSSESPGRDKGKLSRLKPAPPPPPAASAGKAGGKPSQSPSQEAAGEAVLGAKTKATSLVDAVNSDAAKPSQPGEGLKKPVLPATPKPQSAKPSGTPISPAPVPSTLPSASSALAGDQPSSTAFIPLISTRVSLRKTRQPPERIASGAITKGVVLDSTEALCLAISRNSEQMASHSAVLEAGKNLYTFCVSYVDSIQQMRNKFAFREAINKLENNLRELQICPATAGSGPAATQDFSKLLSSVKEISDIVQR

`O=C(Cc1ccc(OCc2ccccc2)cc1)Nc1nc2cc(Cl)ccc2o1` [Compound B15] had a Kd at ABL1(E274K) of more than 10 µM.
Turning to `O=C(Cc1ccc(F)cc1)Nc1cc(C2CC2)nn1-c1ccccc1` [Compound E7], at ABL1(DKIN), the Kd was more than 10 µM.
